US20260000676A1, “CHROMAN DERIVATIVES AS ESTROGEN RECEPTOR DEGRADERS” (THE REGENTS OF THE UNIVERSITY OF MICHIGAN, priority 2022, published 2026)
Where two headings read alike, the source gives them in different places.

Key:
MCF-7 cells [1] = assay: cells; details: Homo sapiens, MCF7, 144 h, read-out: MCF7 Proliferation IC50 (nM)
Protocol: (§1) In vitro assay can be accomplished by MCF-7 and T47D Cell Titer Glo (CTG) assay. MCF-7 and T47D cell (From HDB) are cultured in multi-well white plate with phenol red-free RPMI1640+10% CS-FBS+1% P/S medium (e.g., at 1,000 cells/well). On day 0: Cells are treated with compound at certain concentrations (e.g., 0.5 to 10000 nM) (DMSO and Staurosporine as control). On day 0 and day 6: add Cell Titer Glo reagent and read on EnVision after 30 min incubation for data generation.
(§2) • 1) Cell culture medium: phenol red-free RPMI1640+10% CS-FBS, 1% P/S
(§3) Day-1: MCF-7 and T47D cell (From HDB) were cultured in 384-well white plate with phenol red-free RPMI1640+10% CS-FBS+1% P/S medium (1,000 cells/well) for overnight at 37° C., 5% CO2 incubator.
(§4) Day 0: Cells were treated at desired compound concentrations (0.5 to 10000 nM) (DMSO and Staurosporine as control) for Day 6 at 37° C., 5% CO2 incubator.
(§5) Day 0 and Day 6: add Cell TiterGlo reagent and read on EnVision after 30 min incubation for data generation.

CRBN/DDB1 = CRBN/DDB1 (Homo sapiens (Human), UniProt Q96SW2); assay: HTRF binding assay to CRBN/DDB1
Protocol: The binding potency was determined using HTRF assay technology (Perkin Elmer). Compounds were serially diluted in DMSO and 0.2 μL volume was transferred to white 384-well plate.

ERα_LBD(GST) = ERα_LBD(GST) (Homo sapiens (Human), UniProt P03372); assay: LanthaScreen TR-FRET ERα competitive binding assay; details: read-out: ERα HTRF IC50
ERα_LBD(GST), sequence (P03372 311-547): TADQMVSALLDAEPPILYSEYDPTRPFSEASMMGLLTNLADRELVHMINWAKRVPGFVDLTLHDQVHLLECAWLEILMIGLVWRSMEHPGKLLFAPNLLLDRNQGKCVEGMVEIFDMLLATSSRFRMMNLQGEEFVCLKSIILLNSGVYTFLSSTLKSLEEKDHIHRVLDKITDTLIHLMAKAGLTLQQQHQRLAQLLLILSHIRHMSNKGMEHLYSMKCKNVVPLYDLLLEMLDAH
How it was run: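 GST-tagged ERα LBD (4 nM) with Tb anti-GST (2 nM) and Fluormone ES2 Green tracer (3 nM) in nuclear receptor buffer K plus 5 mM DTT, 1% DMSO; 3-fold compound dilutions, 60 min at room temperature in the dark. TR-FRET 520/495 nm ratio vs log[ligand], sigmoidal fit for IC50; 1 μM ARV_471 as full-inhibition control.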

ER [2] = target: T1, ER (Homo sapiens (Human), UniProt P03372); assay: In-cell western (ICW) ER degradation assay in T47D cells; assay type: cell-based; details: 16 hrs; for DC50: ER degradation; for Dmax / T47D Dmax %: maximal ER degradation
T1 sequence (P03372 whole entry): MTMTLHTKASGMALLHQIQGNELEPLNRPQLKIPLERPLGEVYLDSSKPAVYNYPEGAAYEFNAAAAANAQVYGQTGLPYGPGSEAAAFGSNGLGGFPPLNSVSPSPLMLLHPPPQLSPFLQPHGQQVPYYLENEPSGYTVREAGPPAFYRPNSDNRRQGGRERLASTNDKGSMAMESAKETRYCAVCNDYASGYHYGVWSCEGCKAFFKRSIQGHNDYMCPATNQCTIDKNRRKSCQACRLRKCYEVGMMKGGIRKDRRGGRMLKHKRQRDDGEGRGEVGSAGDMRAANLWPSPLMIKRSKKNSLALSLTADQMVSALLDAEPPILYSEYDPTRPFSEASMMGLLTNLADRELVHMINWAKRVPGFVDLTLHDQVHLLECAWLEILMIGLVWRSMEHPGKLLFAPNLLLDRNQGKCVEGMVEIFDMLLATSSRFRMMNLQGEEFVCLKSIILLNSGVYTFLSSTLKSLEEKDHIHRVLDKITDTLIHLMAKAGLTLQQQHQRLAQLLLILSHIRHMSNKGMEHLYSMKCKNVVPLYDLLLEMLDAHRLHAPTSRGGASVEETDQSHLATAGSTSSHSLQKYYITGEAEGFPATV

T47D cells [3] = assay: cells; details: Homo sapiens, 144 h, read-out: T47D Proliferation IC50 (nM)
Protocol: as §1, §2, §3, §4, §5

ER [4] = target: T1, ER; assay: In-cell western (ICW) ER degradation assay in MCF-7 cells; assay type: cell-based; details: MCF7, 16 hrs; for DC50: ER degradation; for Dmax: MCF7, maximal ER degradation; for MCF7 Dmax %: maximal ER degradation
MCF-7 cells [5] = details: read-out: MCF7 Proliferation IC50; CellTiter-Glo, day 6
Protocol: as §1, §2, §3, §4, §5

T47D cells [6] = details: read-out: T47D Proliferation IC50; CellTiter-Glo, day 6
Protocol: as §1, §2, §3, §4, §5

ER [7] = target: T1, ER; assay: In-cell western blot analysis (Compounds B1 to B5); assay type: cell-based; details: 16 hours; read-out: ICW DC50
Protocol: In-cell western blot analysis. Cells are seeded in multi-well plates (e.g., at 40,000 or 10,000 cells/well). Diluted compounds at certain concentration are added (final 0.5% DMSO) and cells are incubated for a certain period of time (e.g., 16 hours). Formaldehyde (e.g., PBS:FA=9:1) is added and followed by washing with PBS. The cells are blocked with Licor blocking buffer (Li-Cor). The relative ER percentage in treated cells were obtained by comparing the values of treated wells to those in untreated and DMSO-treated wells as 100%.
In-cell western blot analysis, a. seed cells in black-sided/clear bottom 96- or 384-well plates at 40,000 or 10,000 cells/well, overnight; b, add diluted compounds (final 0.5% DMSO), 16 hours. 16 h later, remove medium, add 100 μL or 25 µL of 3.7-4.0% formaldehyde (PBS: FA=9:1), RT 20 min, no shaking; c. wash with PBS, and permeabilized with 100 μL or 25 μL/well of 1×PBS+0.1% Triton X-100 10 minutes; d. block with 100 μL or 25 L Licor blocking buffer (Li-Cor), RT 1 h, moderate shaking; d. Add 100 μL or 25 μL of anti-ER (cs-8644, 1:500-1,000)+GAPDH (Millipore MAB374, 1:1000) in Block+0.05% Tween 20. RT 2 h, gentle shaking. Negative control: cells plus secondary antibodies (no primary antibodies); e. wash×4 with PBS+0.05-0.1% Tween 20, gentel shaking; f, anti-rabbit-680 and anti-mouse-800 (both 1:1000 in LiCor block+0.05% Tween20, RT 1 h, gentle shaking, no light. LI-COR: 0.2% to reduce background; g. wash×4 with PBS+0.05% Tween 20, gental shaking; h, add 100 μL or 25 μL of PBS to each well and read on CLX plate reader. The relative ER percentage in treated cells were obtained by comparing the values of treated wells to those in untreated and DMSO-treated wells as 100%.

T47D cell line = assay: Cell growth assay (WST-8) in T47D cell line; assay type: cell-based; details: Homo sapiens, 96 h, WST-8, 4 days, read-out: Cell Growth Inhibition in T47D cell line IC50
Protocol: Cell Growth Assay. The cells are seeded at certain concentration (e.g., at 1500/well) in multi-well plates overnight. Cells are subsequently treated with the compounds. A certain period of time (e.g., 4 days) after the compound treatment, 10% WST-8 reagent is added to the culture medium and incubate under certain conduction (e.g., in a CO2 incubator at 37° C. for 2.5 hours). The absorbance is measured on each sample using a microplate reader at certain wavelength (e.g., 450 nm). The relative absorbance is calculated against the vehicle control from three individually repeats.
Cell Growth Assay. The cells were seeded at 1500/well in 96 well plates overnight. One day after the seeding, they were treated with indicated doses of compounds respectively. 4 days after the compound treatment, 10% WST-8 reagent was added to the culture medium and incubate in a CO2 incubator at 37° C. for 2.5 hours. Before reading, the plate was mixed gently on an orbital shaker for one minute to ensure homogeneous distribution of color. The absorbance was measured of each sample using a microplate reader at a wavelength of 450 nm. The relative absorbance was calculated against the vehicle control from three individually repeats.

CRBN/DDB1, sequence (Q96SW2 whole entry): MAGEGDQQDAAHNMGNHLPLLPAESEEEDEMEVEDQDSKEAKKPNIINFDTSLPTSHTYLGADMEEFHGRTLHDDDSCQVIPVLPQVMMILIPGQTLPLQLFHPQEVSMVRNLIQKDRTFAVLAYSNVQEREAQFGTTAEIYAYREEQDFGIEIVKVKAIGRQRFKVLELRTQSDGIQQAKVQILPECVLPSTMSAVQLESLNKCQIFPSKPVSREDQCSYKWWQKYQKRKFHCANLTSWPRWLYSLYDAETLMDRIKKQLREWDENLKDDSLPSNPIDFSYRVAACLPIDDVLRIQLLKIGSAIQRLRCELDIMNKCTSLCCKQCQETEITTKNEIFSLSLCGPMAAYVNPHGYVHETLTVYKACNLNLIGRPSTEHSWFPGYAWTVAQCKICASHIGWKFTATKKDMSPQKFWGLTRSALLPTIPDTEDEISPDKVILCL
CRBN/DDB1, sequence (Q16531 whole entry partner): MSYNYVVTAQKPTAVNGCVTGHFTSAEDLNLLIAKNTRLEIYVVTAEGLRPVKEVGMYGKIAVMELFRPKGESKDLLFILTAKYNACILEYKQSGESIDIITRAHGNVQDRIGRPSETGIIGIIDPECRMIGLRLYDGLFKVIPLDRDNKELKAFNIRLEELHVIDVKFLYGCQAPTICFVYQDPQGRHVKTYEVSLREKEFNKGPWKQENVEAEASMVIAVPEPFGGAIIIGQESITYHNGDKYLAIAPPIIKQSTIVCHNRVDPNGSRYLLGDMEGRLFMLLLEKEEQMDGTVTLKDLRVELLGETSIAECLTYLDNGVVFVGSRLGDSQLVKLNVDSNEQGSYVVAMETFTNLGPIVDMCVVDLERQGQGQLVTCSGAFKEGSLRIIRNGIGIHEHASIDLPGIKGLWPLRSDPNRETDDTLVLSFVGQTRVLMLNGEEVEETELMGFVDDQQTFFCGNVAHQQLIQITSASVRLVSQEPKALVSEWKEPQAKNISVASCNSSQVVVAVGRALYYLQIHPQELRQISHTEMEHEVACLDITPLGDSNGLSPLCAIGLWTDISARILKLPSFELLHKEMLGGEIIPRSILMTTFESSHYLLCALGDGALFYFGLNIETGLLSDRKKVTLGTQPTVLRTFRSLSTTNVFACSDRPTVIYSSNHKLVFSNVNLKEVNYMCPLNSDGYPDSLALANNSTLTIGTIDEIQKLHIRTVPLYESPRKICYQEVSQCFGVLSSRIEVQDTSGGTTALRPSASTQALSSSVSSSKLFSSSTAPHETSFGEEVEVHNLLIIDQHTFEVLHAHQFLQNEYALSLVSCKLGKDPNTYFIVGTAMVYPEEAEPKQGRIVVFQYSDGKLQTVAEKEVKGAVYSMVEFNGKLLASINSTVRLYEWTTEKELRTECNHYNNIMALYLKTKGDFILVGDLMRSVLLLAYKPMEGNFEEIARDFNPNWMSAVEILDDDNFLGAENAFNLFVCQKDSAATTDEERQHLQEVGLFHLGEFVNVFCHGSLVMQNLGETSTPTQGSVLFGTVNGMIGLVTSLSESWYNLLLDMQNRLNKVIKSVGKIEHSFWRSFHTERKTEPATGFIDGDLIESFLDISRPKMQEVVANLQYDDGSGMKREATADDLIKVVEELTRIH

Row | Structure (SMILES) | IC50 (MCF-7 cells [1]) [nM] | IC50 (CRBN/DDB1; read-out: CRBN HTRF IC50) [nM] | IC50 (ERα_LBD(GST)) [µM] | DC50 (ER [2]) [µM] | Dmax (ER [2]) [%] | IC50 (T47D cells [3]) [nM] | DC50 (ER [4]) [µM] | Dmax (ER [4]) [%] | T47D Dmax % (ER [2]) | MCF7 Dmax % (ER [4]) | IC50 (CRBN/DDB1; CRBN HTRF IC50 (nM)) [nM] | IC50 (MCF-7 cells [5]) [µM] | IC50 (T47D cells [6]) [µM] | DC50 (ER [7]) [µM] | IC50 (T47D cell line) [µM]
1 | O=C1CC[C@H](N2Cc3c(ccc4c3OC[C@H]3CN(CC5CC6(CCN(c7ccc([C@H]8c9ccc(O)cc9OC[C@H]8c8ccccc8)cc7)CC6)C5)CCN43)C2=O)C(=O)N1 (single isomer, unassigned) [Compound A50] | 50 to 500 | 50 to 500 | < 0.005 | < 0.001 | 50 to 75 | 50 to 500 | 0.001 to 0.01 | 50 to 75 |  |  |  |  |  |  | 
2 | O=C1CCC(N2Cc3cc4c(cc3C2=O)OC[C@@H]2CN(CC3CCC5(CC3)CN(c3ccc([C@@H]6c7ccc(O)cc7OC[C@@H]6c6ccccc6)cc3)C5)CCN42)C(=O)N1 (single isomer, unassigned) [Compound A58] | 50 to 500 | 500 to 5000 | < 0.005 | 0.001 to 0.01 |  | 50 to 500 | 0.001 to 0.01 |  | B (“B”: >50% and <75%) | C (“C”: 25%-50%) |  |  |  |  | 
3 | O=C1CCC(N2Cc3cc(N4CCN(CC5CCN(c6ccc([C@@H]7c8ccc(O)cc8OC[C@@H]7c7ccccc7)cc6)CC5)CC4)ccc3C2=O)C(=O)N1 (single isomer, unassigned) [Compound A62] | < 50 | 50 to 500 | < 0.005 | < 0.001 | 50 to 75 | < 50 | < 0.001 | 50 to 75 |  |  |  |  |  |  | 
4 | O=C1CCC(N2Cc3cc(N4CCN(CC5CC6(CCN(c7ccc([C@@H]8c9ccc(O)cc9OC[C@@H]8c8ccccc8)cn7)CC6)C5)CC4)ccc3C2=O)C(=O)N1 (single isomer, unassigned) [Compound A92] |  |  |  | < 0.001 |  |  | < 0.001 |  | B (“B”: >50% and <75%) | B (“B”: >50% and <75%) | > 5000 | < 0.05 | < 0.05 |  | 
5 | O=C1CC[C@H](N2Cc3c(ccc4c3OC[C@H]3CN(CC5CCC6(CC5)CN(c5ccc([C@@H]7c8ccc(O)cc8OC[C@@H]7c7ccccc7)cc5)C6)CCN43)C2=O)C(=O)N1 (single isomer, unassigned) [Compound A115] | 50 to 500 | 50 to 500 | < 0.005 | < 0.001 | ≥ 75 | 50 to 500 | < 0.001 | ≥ 75 |  |  |  |  |  |  | 
6 | O=C1CCC(N2Cc3cc(N4CCN(CC5CC6(CCN(c7ccc([C@H]8c9ccc(O)cc9OC[C@H]8c8ccccc8)cn7)CC6)C5)CC4)ccc3C2=O)C(=O)N1 (stereo partly drawn) [Compound A98, (R)-3-(5-(4-((7-(5-((3R,4S)-7-hydroxy-3-3-phenylchroman-4-yl)pyridin-2-yl)-7-azaspiro[3.5]nonan-2-yl)methyl)piperazin-1-yl)-1-oxoisoindolin-2-yl)piperidine-2,6-dione] |  | 50 to 500 |  | < 0.001 | ≥ 75 |  | < 0.001 | ≥ 75 |  |  |  | < 0.05 | < 0.05 |  | 
7 | O=C1CC[C@@H](N2Cc3cc4c(cc3C2=O)OC[C@H]2CN(CC3COC5(CCN(c6ccc([C@H]7c8ccc(O)cc8OC[C@H]7c7ccccc7)cc6)CC5)C3)CCN42)C(=O)N1 (stereo partly drawn) [Compound A138, (3R)-3-((4aR)-3-((8-(4-((3R,4S)-7-hydroxy-3-phenylchroman-4-yl)phenyl)-1-oxa-8-azaspiro[4.5]decan-3-yl)methyl)-8-oxo-1,2,3,4,4a,5,8,10-octahydro-9H-pyrazino[1′,2′:4,5][1,4]oxazino[2,3-f]isoindol-9-yl)piperidine-2,6-dione] | < 50 | 50 to 500 | < 0.005 | < 0.001 | 50 to 75 | < 50 | < 0.001 | ≥ 75 |  |  |  |  |  |  | 
8 | O=C1CC[C@@H](N2Cc3c(ccc4c3OCC43CCN(CC4CCC5(CC4)CN(c4ccc([C@H]6c7ccc(O)cc7OC[C@H]6c6ccccc6)cc4)C5)CC3)C2=O)C(=O)N1 [Compound A154, (R)-3-(1′-((2-(4-((3R,4S)-7-hydroxy-3-phenylchroman-4-yl)phenyl)-2-azaspiro[3.5]nonan-7-yl)methyl)-6-oxo-6,8-dihydro-2H,7H-spiro[furo[2,3-e]isoindole-3,4′-piperidin]-7-yl)piperidine-2,6-dione] | < 50 | < 50 | < 0.005 | < 0.001 | ≥ 75 | < 50 | < 0.001 | 50 to 75 |  |  |  |  |  |  | 
9 | O=C1CCC(N2Cc3c(ccc4c3OC[C@H]3CN(CC5CCN(c6ccc(C7c8ccc(O)cc8OCC7c7ccccc7)cc6)CC5)CCN43)C2=O)C(=O)N1 (stereo partly drawn) [Compound B1, 3-((5aR)-7-((1-(4-(7-hydroxy-3-phenylchroman-4-yl)phenyl)piperidin-4-yl)methyl)-1-oxo-1,3,5,5a,6,7,8,9-octahydro-2H-pyrazino[1′,2′:4,5][1,4]oxazino[2,3-e]isoindol-2-yl) piperidine-2,6-dione] |  |  |  |  |  |  |  |  |  |  |  |  |  | > 0.1 | > 0.01
10 | O=C1CCC(N2Cc3c(ccc4c3OC[C@H]3CN(CC5CC6(CCN(c7ccc(C8c9ccc(O)cc9OCC8c8ccccc8)cc7)CC6)C5)CCN43)C2=O)C(=O)N1 (stereo partly drawn) [Compound B2] |  |  |  |  |  |  |  |  |  |  |  |  |  | > 0.1 | > 0.01
11 | O=C1CCC(N2Cc3cc4c(cc3C2=O)OC[C@@H]2CN(CC3CC5(CCN(c6ccc(C7c8ccc(O)cc8OCC7c7ccccc7)cc6)CC5)C3)CCN42)C(=O)N1 (stereo partly drawn) [Compound B3, 3-((4aS)-3-((7-(4-(7-hydroxy-3-phenylchroman-4-yl)phenyl)-7-azaspiro[3.5]nonan-2-yl)methyl)-8-oxo-1,2,3,4,4a,5,8,10-octahydro-9H-pyrazino[1′,2′:4,5] [1,4]oxazino[2,3-f]isoindol-9-yl) piperidine-2,6-dione] |  |  |  |  |  |  |  |  |  |  |  |  |  | > 0.1 | > 0.01
12 | O=C1CCC(N2Cc3c(ccc4c3OCC43CCN(CC4CC5(CCN(c6ccc(C7c8ccc(O)cc8OCC7c7ccccc7)cc6)CC5)C4)CC3)C2=O)C(=O)N1 (stereo not drawn) [Compound B4, 3-(1′-((7-(4-(7-hydroxy-3-phenylchroman-4-yl)phenyl)-7-azaspiro[3.5]nonan-2-yl)methyl)-6-oxo-6,8-dihydro-2H,7H-spiro[furo [2,3-e]isoindole-3,4′-piperidin]-7-yl)piperidine-2,6-dione] |  |  |  |  |  |  |  |  |  |  |  |  |  | > 0.1 | > 0.01
13 | O=C1CCC(N2C(=O)c3cc4c(cc3C2=O)CN(CC(=O)N2CCC3(CC2)CCN(c2ccc(C5c6ccc(O)cc6OCC5c5ccccc5)cc2)CC3)C4)C(=O)N1 (stereo not drawn) [Compound B5, 2-(2,6-dioxopiperidin-3-yl)-6-(2-(9-(4-(7-hydroxy-3-phenylchroman-4-yl)phenyl)-3,9-diazaspiro[5.5]undecan-3-yl)-2-oxoethyl)-6,7-dihydropyrrolo[3,4-f]isoindole-1,3(2H,5H)-dione] |  |  |  |  |  |  |  |  |  |  |  |  |  | > 0.1 | > 0.01
